# Key:
# [1] = system: Liver; experiment: Biodistribution in Wistar rat liver assessed as standard uptake value at 1.7 MBq, iv administered as single dose measured after 30 mins post-injection by gamma counting; assay type: ADME, organism-based; details: in vivo, 0.5 h
# [2] = system: Pancreas; experiment: Biodistribution in Wistar rat pancreas at 1.7 MBq, iv administered as single dose measured after 1 min post-injection by gamma counting; assay type: ADME, organism-based; details: in vivo
# [3] = system: Harderian gland; experiment: Biodistribution in Wistar rat harderian gland at 1.7 MBq, iv administered as single dose measured after 30 mins post-injection by gamma counting; assay type: ADME, organism-based; details: in vivo, 0.5 h
# [4] = Biodistribution in Wistar rat urine at 1.7 MBq, iv administered as single dose measured after 10 mins post-injection by gamma counting; assay type: ADME, organism-based; details: in vivo
# [5] = system: Kidney; experiment: Biodistribution in Wistar rat kidney at 1.7 MBq, iv administered as single dose measured after 1 min post-injection by gamma counting; assay type: ADME, organism-based; details: in vivo
# [6] = system: Adrenal gland; experiment: Biodistribution in Wistar rat adrenal gland assessed as standard uptake value at 1.7 MBq, iv administered as single dose measured after 10 mins post-injection by gamma counting; assay type: ADME, organism-based; details: in vivo
# [7] = Ratio of drug level in kidney to blood in Wistar rat at 1.7 MBq, iv administered as single dose measured after 60 mins post-injection; assay type: ADME, organism-based
# [8] = system: Brain; experiment: Biodistribution in Wistar rat brain at 1.7 MBq, iv administered as single dose measured after 30 mins post-injection by gamma counting; assay type: ADME, organism-based; details: in vivo, 0.5 h
# [9] = system: Spleen; experiment: Biodistribution in Wistar rat spleen at 1.7 MBq, iv administered as single dose measured after 60 mins post-injection by gamma counting; assay type: ADME, organism-based; details: in vivo, 1 h
# [10] = system: Liver; experiment: Biodistribution in Wistar rat liver at 1.7 MBq, iv administered as single dose measured after 1 min post-injection by gamma counting; assay type: ADME, organism-based; details: in vivo
# [11] = system: Harderian gland; experiment: Biodistribution in Wistar rat harderian gland assessed as standard uptake value at 1.7 MBq, iv administered as single dose measured after 60 mins post-injection by gamma counting; assay type: ADME, organism-based; details: in vivo, 1 h
# [12] = system: Spleen; experiment: Biodistribution in Wistar rat spleen at 1.7 MBq, iv administered as single dose measured after 1 min post-injection by gamma counting; assay type: ADME, organism-based; details: in vivo
# [13] = system: Harderian gland; experiment: Biodistribution in Wistar rat harderian gland at 1.7 MBq, iv administered as single dose measured after 10 mins post-injection by gamma counting; assay type: ADME, organism-based; details: in vivo
# [14] = system: Lung; experiment: Biodistribution in Wistar rat lung at 1.7 MBq, iv administered as single dose measured after 30 mins post-injection by gamma counting; assay type: ADME, organism-based; details: in vivo, 0.5 h
# [15] = system: Adrenal gland; experiment: Biodistribution in Wistar rat adrenal gland at 1.7 MBq, iv administered as single dose measured after 60 mins post-injection by gamma counting; assay type: ADME, organism-based; details: in vivo, 1 h
# [16] = system: Kidney; experiment: Biodistribution in Wistar rat kidney at 1.7 MBq, iv administered as single dose measured after 30 mins post-injection by gamma counting; assay type: ADME, organism-based; details: in vivo, 0.5 h
# [17] = Metabolic stability in Wistar rat blood assessed as compound remaining at 30 MBq, iv after 3 mins by radio-HPLC analysis; assay type: ADME, organism-based; details: read-out: Stability
# [18] = system: Pancreas; experiment: Biodistribution in Wistar rat pancreas at 1.7 MBq, iv administered as single dose measured after 60 mins post-injection by gamma counting; assay type: ADME, organism-based; details: in vivo, 1 h
# [19] = Biodistribution in Wistar rat stomach at 1.7 MBq, iv administered as single dose measured after 5 mins post-injection by gamma counting; assay type: ADME, organism-based; details: in vivo
# [20] = system: Femur; experiment: Biodistribution in Wistar rat femur at 1.7 MBq, iv administered as single dose measured after 5 mins post-injection by gamma counting; assay type: ADME, organism-based; details: in vivo
# [21] = system: Lung; experiment: Biodistribution in Wistar rat lung at 1.7 MBq, iv administered as single dose measured after 5 mins post-injection by gamma counting; assay type: ADME, organism-based; details: in vivo
# [22] = system: Testes; experiment: Biodistribution in Wistar rat testes assessed as standard uptake value at 1.7 MBq, iv administered as single dose measured after 5 mins post-injection by gamma counting; assay type: ADME, organism-based, Testis; details: in vivo
# [23] = system: Heart; experiment: Biodistribution in Wistar rat heart at 1.7 MBq, iv administered as single dose measured after 30 mins post-injection by gamma counting; assay type: ADME, organism-based; details: in vivo, 0.5 h
# [24] = Biodistribution in Wistar rat urine at 1.7 MBq, iv administered as single dose measured after 30 mins post-injection by gamma counting; assay type: ADME, organism-based; details: in vivo, 0.5 h
# [25] = system: Spleen; experiment: Biodistribution in Wistar rat spleen at 1.7 MBq, iv administered as single dose measured after 5 mins post-injection by gamma counting; assay type: ADME, organism-based; details: in vivo
# [26] = system: Thymus; experiment: Biodistribution in Wistar rat thymus assessed as standard uptake value at 1.7 MBq, iv administered as single dose measured after 5 mins post-injection by gamma counting; assay type: ADME, organism-based; details: in vivo
# [27] = system: Liver; experiment: Biodistribution in Wistar rat liver at 1.7 MBq, iv administered as single dose measured after 5 mins post-injection by gamma counting; assay type: ADME, organism-based; details: in vivo
# [28] = system: Harderian gland; experiment: Biodistribution in Wistar rat harderian gland at 1.7 MBq, iv administered as single dose measured after 1 min post-injection by gamma counting; assay type: ADME, organism-based; details: in vivo
# [29] = Ratio of drug level in brown adipose tissue to blood in Wistar rat at 1.7 MBq, iv administered as single dose measured after 5 mins post-injection; assay type: ADME, organism-based
# [30] = Ratio of drug level in heart to blood in Wistar rat at 1.7 MBq, iv administered as single dose measured after 60 mins post-injection; assay type: ADME, organism-based
# [31] = system: Heart; experiment: Biodistribution in Wistar rat heart assessed as standard uptake value at 1.7 MBq, iv administered as single dose measured after 10 mins post-injection by gamma counting; assay type: ADME, organism-based; details: in vivo
# [32] = system: Adrenal gland; experiment: Biodistribution in Wistar rat adrenal gland assessed as standard uptake value at 1.7 MBq, iv administered as single dose measured after 1 min post-injection by gamma counting; assay type: ADME, organism-based; details: in vivo
# [33] = system: Testes; experiment: Biodistribution in Wistar rat testes at 1.7 MBq, iv administered as single dose measured after 1 min post-injection by gamma counting; assay type: ADME, organism-based, Testis; details: in vivo
# [34] = Biodistribution in Wistar rat brown adipose tissue assessed as standard uptake value at 1.7 MBq, iv administered as single dose measured after 1 min post-injection by gamma counting; assay type: ADME, organism-based; details: in vivo
# [35] = system: Lung; experiment: Biodistribution in Wistar rat lung assessed as standard uptake value at 1.7 MBq, iv administered as single dose measured after 30 mins post-injection by gamma counting; assay type: ADME, organism-based; details: in vivo, 0.5 h
# [36] = system: Harderian gland; experiment: Biodistribution in Wistar rat harderian gland at 1.7 MBq, iv administered as single dose measured after 60 mins post-injection by gamma counting; assay type: ADME, organism-based; details: in vivo, 1 h
# [37] = system: Pancreas; experiment: Biodistribution in Wistar rat pancreas assessed as standard uptake value at 1.7 MBq, iv administered as single dose measured after 1 min post-injection by gamma counting; assay type: ADME, organism-based; details: in vivo
# [38] = Biodistribution in Wistar rat brown adipose tissue assessed as standard uptake value at 1.7 MBq, iv administered as single dose measured after 30 mins post-injection by gamma counting; assay type: ADME, organism-based; details: in vivo, 0.5 h
# [39] = system: Liver; experiment: Biodistribution in Wistar rat liver at 1.7 MBq, iv administered as single dose measured after 10 mins post-injection by gamma counting; assay type: ADME, organism-based; details: in vivo
# [40] = system: Brain; experiment: Biodistribution in Wistar rat brain at 1.7 MBq, iv administered as single dose measured after 60 mins post-injection by gamma counting; assay type: ADME, organism-based; details: in vivo, 1 h
# [41] = system: Pancreas; experiment: Biodistribution in Wistar rat pancreas assessed as standard uptake value at 1.7 MBq, iv administered as single dose measured after 10 mins post-injection by gamma counting; assay type: ADME, organism-based; details: in vivo
# [42] = Phase 1 elimination half life in Wistar rat at 30 MBq, iv by radio-HPLC analysis; assay type: ADME, organism-based; details: in vivo, read-out: beta t1/2 (converted)
# [43] = system: Brain; experiment: Biodistribution in Wistar rat brain assessed as standard uptake value at 1.7 MBq, iv administered as single dose measured after 10 mins post-injection by gamma counting; assay type: ADME, organism-based; details: in vivo
compound,measurement,setting,value
O=C1Nc2ccccc2/C1=C/c1ccc([18F])cc1,SUV,[1],1.68%
same,Drug uptake,[2],0.56 %ID
same,Drug uptake,[3],0.14 %ID
same,Drug uptake,[4],6.98 %ID
same,Drug uptake,[5],3.13 %ID
same,SUV,[6],3.2%
same,Kp at 1 h,[7],7.6
same,Drug uptake,[8],0.44 %ID
same,Drug uptake,[9],0.04 %ID
same,Drug uptake,[10],17.16 %ID
same,SUV,[11],0.46%
same,Drug uptake,[12],0.31 %ID
same,Drug uptake,[13],0.25 %ID
same,Drug uptake,[14],0.33 %ID
same,Drug uptake,[15],0.04 %ID
same,Drug uptake,[16],1.45 %ID
same,remaining at 0.05 h,[17],54%
same,Drug uptake,[18],0.07 %ID
same,Drug uptake,[19],0.94 %ID
same,Drug uptake,[20],0.35 %ID
same,Drug uptake,[21],1.02 %ID
same,SUV,[22],0.41%
same,Drug uptake,[23],0.18 %ID
same,Drug uptake,[24],11.23 %ID
same,Drug uptake,[25],0.23 %ID
same,SUV,[26],0.82%
same,Drug uptake,[27],18.4 %ID
same,Drug uptake,[28],0.29 %ID
same,Kp at 5 min,[29],4.1
same,Kp at 1 h,[30],1.8
same,SUV,[31],0.88%
same,SUV,[32],4.95%
same,Drug uptake,[33],0 %ID
same,SUV,[34],1.42%
same,SUV,[35],0.47%
same,Drug uptake,[36],0.06 %ID
same,SUV,[37],2.4%
same,SUV,[38],0.98%
same,Drug uptake,[39],17.84 %ID
same,Drug uptake,[40],0.2 %ID
same,SUV,[41],1.13%
same,half-life,[42],8 s
same,SUV,[43],0.97%

# — ChEMBL document CHEMBL1152667, “Synthesis and radiopharmacological investigation of 3-[4'-[(18)F]fluorobenzylidene]indolin-2-one as possible tyrosine kinase inhibitor” (Bioorg Med Chem, 2009)
